Measured values taken from ChEMBL document CHEMBL1140165, “Rotationally constrained 2,4-diamino-5,6-disubstituted pyrimidines: a new class of histamine H4 receptor antagonists with improved druglikeness and in vivo efficacy in pain and inflammation models” (J Med Chem, 2008).
Active and inactive are the calls of the source. The calls are words filed in the database; no cut-off is given here.

Legend:
Liver microsomes [1] = test: Metabolic stability in human liver microsomes; assay type: ADME, Microsome
Rattus norvegicus [2] = test: Antinociceptive efficacy in spinal nerve ligated Sprague-Dawley rat assessed as reduction of neuropathic pain in left side paw at 300 umol/kg, ip administered 30 mins before testing relative to control; assay type: functional
Liver microsomes [3] = test: Metabolic stability in rat liver microsomes; assay type: ADME, Microsome
Mus musculus [4] = test: Antiinflammatory activity against ip dosed BALB/c mouse assessed as inhibition of zymosan-induced peritonitis after 2 hrs pretreated 30 mins before zymosan challenge; assay type: functional
Histamine H4 receptor [5] = biological target: T1, Histamine H4 receptor (Mus musculus, UniProt Q91ZY2); test: Antagonist activity at mouse histamine H4 receptor expressed in HEK293 cells assessed as inhibition of histamine-induced intracellular calcium elevation by FLIPR assay; assay type: functional, cell-based
T1 sequence (Q91ZY2 whole entry): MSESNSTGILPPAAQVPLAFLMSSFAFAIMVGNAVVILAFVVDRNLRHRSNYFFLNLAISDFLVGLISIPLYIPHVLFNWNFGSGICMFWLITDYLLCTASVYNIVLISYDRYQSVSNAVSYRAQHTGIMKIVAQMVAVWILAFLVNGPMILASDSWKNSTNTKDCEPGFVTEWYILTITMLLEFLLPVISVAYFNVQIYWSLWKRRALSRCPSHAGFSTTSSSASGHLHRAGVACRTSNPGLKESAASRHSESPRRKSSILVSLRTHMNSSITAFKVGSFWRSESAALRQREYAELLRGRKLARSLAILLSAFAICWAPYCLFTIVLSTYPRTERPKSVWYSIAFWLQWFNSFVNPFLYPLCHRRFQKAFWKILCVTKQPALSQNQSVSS

Mus musculus [6] = test: Inhibition of clobenpropit-induced itching in ip dosed CD1/ICR mouse assessed as blockade of scratching in hind paw for 25 mins pretreated 30 mins before clobenpropit challenge; assay type: functional
Rattus norvegicus [7] = test: Antinociceptive efficacy in spinal nerve ligated Sprague-Dawley rat assessed as reduction of neuropathic pain in left side paw at 100 umol/kg, ip administered 30 mins before testing relative to control; assay type: functional
Rattus norvegicus [8] = test: Antinociceptive efficacy in rat assessed as inhibition of carrageenan-induced inflammatory pain in paw at 100 umol/kg, ip after 30 mins by hotbox assay relative to control; assay type: functional
[9] = Selectivity ratio of Ki for human histamine H4 receptor to Ki for histamine H2 receptor
[10] = biological target: T2, Prostaglandin G/H synthase 2 (Homo sapiens) (UniProt P35354); test: Binding affinity at COX2
T2 sequence (whole entry): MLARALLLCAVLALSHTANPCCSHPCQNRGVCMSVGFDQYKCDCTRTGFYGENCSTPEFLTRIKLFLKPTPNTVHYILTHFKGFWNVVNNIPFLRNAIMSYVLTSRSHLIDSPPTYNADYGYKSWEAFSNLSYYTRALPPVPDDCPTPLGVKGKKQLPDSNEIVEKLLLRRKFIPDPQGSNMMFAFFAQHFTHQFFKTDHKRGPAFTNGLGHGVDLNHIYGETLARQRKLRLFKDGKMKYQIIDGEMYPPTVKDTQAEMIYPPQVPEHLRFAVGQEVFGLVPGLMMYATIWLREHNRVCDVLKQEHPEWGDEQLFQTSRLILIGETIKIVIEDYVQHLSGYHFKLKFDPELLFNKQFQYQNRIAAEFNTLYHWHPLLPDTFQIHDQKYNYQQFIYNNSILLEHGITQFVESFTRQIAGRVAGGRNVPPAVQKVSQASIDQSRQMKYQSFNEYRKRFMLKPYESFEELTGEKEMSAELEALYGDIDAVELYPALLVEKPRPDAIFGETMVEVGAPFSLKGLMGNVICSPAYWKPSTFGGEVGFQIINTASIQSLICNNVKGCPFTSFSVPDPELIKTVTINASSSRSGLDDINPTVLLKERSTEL

Histamine H4 receptor [11] = biological target: T3, Histamine H4 receptor (Rattus norvegicus, UniProt Q91ZY1); test: Antagonist activity at rat histamine H4 receptor expressed in HEK293 cells assessed as inhibition of histamine-induced intracellular calcium elevation by FLIPR assay; assay type: functional, cell-based
T3 sequence (Q91ZY1 whole entry): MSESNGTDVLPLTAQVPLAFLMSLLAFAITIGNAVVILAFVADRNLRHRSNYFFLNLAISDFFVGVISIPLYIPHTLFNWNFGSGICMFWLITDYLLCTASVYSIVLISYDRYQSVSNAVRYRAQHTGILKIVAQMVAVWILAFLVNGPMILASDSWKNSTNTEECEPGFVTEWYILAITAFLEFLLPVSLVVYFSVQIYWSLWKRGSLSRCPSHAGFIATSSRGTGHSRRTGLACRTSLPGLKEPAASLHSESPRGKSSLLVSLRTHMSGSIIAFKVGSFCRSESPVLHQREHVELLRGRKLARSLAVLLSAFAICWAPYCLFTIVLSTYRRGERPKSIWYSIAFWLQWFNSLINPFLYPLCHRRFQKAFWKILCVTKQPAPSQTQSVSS

[12] = Selectivity ratio of Ki for human histamine H4 receptor to Ki for adrenergic alpha1 receptor
Histamine H4 receptor [13] = biological target: T4, Histamine H4 receptor (Homo sapiens, UniProt Q9H3N8); settings: HEK293
T4 sequence (Q9H3N8 whole entry): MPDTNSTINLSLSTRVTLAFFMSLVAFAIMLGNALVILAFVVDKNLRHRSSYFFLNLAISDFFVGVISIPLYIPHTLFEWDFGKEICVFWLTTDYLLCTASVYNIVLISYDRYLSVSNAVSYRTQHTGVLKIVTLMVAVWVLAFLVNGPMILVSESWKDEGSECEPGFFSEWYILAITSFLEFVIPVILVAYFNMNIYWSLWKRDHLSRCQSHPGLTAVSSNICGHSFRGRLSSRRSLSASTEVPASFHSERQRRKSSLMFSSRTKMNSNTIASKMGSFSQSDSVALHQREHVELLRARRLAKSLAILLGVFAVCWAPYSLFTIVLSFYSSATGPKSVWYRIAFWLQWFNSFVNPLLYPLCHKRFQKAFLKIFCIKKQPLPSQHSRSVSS

[14] = biological target: Kappa-type opioid receptor (Homo sapiens) (UniProt P41145); test: Binding affinity to kappa opioid receptor
Kappa-type opioid receptor (Homo sapiens), sequence (P41145 whole entry): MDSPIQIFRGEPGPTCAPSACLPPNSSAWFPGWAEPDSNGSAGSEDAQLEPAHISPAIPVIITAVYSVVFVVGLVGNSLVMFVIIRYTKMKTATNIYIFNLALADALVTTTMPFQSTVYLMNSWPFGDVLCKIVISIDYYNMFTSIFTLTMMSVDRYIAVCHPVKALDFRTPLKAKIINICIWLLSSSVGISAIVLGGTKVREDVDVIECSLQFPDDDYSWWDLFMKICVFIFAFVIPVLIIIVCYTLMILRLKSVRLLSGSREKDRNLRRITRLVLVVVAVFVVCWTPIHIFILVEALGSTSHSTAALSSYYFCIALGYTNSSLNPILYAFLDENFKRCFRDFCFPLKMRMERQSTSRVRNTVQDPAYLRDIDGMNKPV

[15] = Selectivity ratio of Ki for human histamine H4 receptor to Ki for 5HT1D receptor
Homo sapiens = species: Homo sapiens; test: Selectivity ratio of Ki for human histamine H4 receptor to Ki for human histamine H3 receptor
[16] = Protein binding in human; assay type: ADME, organism-based; settings: in vivo, read-out: PB (converted)
[17] = Selectivity ratio of Ki for human histamine H4 receptor to Ki for dopamine D2 receptor
[18] = Selectivity ratio of Ki for human histamine H4 receptor to Ki for 5HT1A receptor
[19] = biological target: Cannabinoid receptor 1 (Homo sapiens) (UniProt P21554); test: Binding affinity to CB1 receptor
Cannabinoid receptor 1 (Homo sapiens), sequence (P21554 whole entry): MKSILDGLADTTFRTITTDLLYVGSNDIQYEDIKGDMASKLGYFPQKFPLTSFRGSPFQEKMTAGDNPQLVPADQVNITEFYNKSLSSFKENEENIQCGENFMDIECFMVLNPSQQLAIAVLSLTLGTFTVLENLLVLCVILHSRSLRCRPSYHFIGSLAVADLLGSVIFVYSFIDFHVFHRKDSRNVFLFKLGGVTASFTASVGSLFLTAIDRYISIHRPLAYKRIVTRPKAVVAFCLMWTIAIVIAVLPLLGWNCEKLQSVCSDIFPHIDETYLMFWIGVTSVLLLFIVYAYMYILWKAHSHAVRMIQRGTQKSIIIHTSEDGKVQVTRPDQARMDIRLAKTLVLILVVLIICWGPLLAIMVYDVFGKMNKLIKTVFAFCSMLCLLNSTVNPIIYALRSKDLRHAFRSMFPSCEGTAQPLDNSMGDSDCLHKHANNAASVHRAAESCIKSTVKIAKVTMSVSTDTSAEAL

Cytochrome P450 3A4 = Cytochrome P450 3A4 (Homo sapiens, UniProt P08684); test: Inhibition of CYP3A4 upto 10 uM; assay type: ADME
Cytochrome P450 3A4, sequence (P08684 whole entry): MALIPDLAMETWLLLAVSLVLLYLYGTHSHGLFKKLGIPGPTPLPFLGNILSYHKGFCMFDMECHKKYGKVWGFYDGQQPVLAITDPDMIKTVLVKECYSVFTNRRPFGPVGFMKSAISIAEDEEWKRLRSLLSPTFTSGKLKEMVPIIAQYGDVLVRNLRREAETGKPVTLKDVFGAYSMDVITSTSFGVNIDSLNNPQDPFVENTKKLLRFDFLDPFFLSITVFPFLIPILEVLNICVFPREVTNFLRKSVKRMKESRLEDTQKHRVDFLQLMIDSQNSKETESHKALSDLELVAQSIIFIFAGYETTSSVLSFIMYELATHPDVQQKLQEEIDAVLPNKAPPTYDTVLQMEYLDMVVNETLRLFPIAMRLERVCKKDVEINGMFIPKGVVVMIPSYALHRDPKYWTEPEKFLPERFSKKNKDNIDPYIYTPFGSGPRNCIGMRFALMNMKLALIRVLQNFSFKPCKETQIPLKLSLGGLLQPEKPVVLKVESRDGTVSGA

Histamine H4 receptor [20] = biological target: T4, Histamine H4 receptor; test: Displacement of [3H]histamine from human histamine H4 receptor expressed in HEK293 cells; assay type: cell-based; settings: read-out: Ki
Histamine H4 receptor [21] = biological target: T3, Histamine H4 receptor; test: Displacement of [3H]histamine from rat histamine H4 receptor expressed in HEK293 cells; assay type: cell-based
BMMC = test: Blockade of histamine-induced morphological changes in BALB/c mouse BMMC by flow cytometry; assay type: functional, cell-based
Cytochrome P450 2C9 = Cytochrome P450 2C9 (Homo sapiens, UniProt P11712); test: Inhibition of CYP2C9 upto 10 uM; assay type: ADME
Cytochrome P450 2C9, sequence (P11712 whole entry): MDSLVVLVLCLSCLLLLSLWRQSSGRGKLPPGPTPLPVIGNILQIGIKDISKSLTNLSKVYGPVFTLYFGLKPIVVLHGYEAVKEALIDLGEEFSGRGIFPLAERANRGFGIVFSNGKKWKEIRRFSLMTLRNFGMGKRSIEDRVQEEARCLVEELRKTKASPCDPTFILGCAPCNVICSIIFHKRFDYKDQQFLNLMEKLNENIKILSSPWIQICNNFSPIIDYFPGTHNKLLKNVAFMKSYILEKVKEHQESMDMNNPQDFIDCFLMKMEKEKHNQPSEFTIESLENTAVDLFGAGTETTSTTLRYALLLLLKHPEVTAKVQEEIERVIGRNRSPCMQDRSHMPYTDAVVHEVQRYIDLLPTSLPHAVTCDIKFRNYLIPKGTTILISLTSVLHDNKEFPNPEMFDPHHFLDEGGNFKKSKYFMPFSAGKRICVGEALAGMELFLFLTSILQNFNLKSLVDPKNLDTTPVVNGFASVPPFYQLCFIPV

[22] = Protein binding in rat; assay type: ADME, organism-based; settings: in vivo, read-out: PB (converted)
[23] = biological target: Mu-type opioid receptor (Homo sapiens) (UniProt P35372); test: Binding affinity to mu opioid receptor
Mu-type opioid receptor (Homo sapiens), sequence (P35372 whole entry): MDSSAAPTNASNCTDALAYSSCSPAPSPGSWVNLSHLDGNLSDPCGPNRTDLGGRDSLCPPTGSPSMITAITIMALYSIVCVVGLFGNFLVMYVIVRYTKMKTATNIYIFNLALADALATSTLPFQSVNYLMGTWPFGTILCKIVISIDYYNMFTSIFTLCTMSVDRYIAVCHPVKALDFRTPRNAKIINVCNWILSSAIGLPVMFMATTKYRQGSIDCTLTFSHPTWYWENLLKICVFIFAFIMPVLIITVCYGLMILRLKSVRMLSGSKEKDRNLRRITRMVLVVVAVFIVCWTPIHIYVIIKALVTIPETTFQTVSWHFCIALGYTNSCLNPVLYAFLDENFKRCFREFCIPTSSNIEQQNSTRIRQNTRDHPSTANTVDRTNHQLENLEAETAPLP

[24] = Selectivity ratio of Ki for human histamine H4 receptor to Ki for 5HT2A receptor
[25] = Metabolic stability in mouse liver microsomes; assay type: ADME, Microsome
[26] = biological target: Prostaglandin G/H synthase 1 (Homo sapiens) (UniProt P23219); test: Binding affinity at COX1
Prostaglandin G/H synthase 1 (Homo sapiens), sequence (P23219 whole entry): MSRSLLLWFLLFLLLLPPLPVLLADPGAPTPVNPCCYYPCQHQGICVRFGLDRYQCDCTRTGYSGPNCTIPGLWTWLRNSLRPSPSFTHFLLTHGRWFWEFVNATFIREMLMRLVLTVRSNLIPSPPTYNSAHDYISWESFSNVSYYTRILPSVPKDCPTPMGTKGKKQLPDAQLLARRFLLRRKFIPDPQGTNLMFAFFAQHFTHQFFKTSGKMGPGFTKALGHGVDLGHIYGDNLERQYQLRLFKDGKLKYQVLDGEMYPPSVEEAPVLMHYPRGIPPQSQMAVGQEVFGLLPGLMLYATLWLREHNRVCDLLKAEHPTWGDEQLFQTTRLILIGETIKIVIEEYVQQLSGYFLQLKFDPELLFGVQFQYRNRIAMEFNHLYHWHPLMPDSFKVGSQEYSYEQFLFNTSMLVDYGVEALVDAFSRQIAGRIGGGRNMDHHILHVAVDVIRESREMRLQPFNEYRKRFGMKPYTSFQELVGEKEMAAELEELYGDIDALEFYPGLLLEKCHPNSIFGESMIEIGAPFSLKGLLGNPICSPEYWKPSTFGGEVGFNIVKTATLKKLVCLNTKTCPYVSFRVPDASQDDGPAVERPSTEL

[27] = biological target: Cannabinoid receptor 2 (Homo sapiens) (UniProt P34972); test: Binding affinity to CB2 receptor
Cannabinoid receptor 2 (Homo sapiens), sequence (P34972 whole entry): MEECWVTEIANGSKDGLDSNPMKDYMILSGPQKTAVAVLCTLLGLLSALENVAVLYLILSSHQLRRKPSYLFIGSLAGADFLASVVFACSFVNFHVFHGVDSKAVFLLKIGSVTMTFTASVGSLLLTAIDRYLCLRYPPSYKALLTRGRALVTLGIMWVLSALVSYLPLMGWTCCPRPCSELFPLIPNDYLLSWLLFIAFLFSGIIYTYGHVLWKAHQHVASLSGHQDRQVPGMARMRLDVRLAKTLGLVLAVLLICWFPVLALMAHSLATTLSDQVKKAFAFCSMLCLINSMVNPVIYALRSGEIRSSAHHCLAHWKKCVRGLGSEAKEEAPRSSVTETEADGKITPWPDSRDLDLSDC

[28] = biological target: Delta-type opioid receptor (Homo sapiens) (UniProt P41143); test: Binding affinity to delta opioid receptor
Delta-type opioid receptor (Homo sapiens), sequence (P41143 whole entry): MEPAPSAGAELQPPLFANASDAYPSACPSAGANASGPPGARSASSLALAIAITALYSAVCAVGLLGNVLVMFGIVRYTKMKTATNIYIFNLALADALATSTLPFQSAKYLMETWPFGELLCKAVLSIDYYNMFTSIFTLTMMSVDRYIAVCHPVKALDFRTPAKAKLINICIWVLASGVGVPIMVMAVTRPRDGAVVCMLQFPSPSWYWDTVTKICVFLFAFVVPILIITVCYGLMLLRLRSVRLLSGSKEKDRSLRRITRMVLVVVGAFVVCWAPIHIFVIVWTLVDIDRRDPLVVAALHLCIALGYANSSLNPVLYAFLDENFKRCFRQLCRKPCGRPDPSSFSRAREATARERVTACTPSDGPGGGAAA

[29] = Ratio of drug level in brain to plasma in rat at 10 mg/kg, iv after 30 mins; assay type: ADME, organism-based; parameters: dose 10 mg/kg, route intravenous
Cytochrome P450 2D6 = Cytochrome P450 2D6 (Homo sapiens, UniProt P10635); test: Inhibition of CYP2D6 upto 10 uM; assay type: ADME
Cytochrome P450 2D6, sequence (P10635 whole entry): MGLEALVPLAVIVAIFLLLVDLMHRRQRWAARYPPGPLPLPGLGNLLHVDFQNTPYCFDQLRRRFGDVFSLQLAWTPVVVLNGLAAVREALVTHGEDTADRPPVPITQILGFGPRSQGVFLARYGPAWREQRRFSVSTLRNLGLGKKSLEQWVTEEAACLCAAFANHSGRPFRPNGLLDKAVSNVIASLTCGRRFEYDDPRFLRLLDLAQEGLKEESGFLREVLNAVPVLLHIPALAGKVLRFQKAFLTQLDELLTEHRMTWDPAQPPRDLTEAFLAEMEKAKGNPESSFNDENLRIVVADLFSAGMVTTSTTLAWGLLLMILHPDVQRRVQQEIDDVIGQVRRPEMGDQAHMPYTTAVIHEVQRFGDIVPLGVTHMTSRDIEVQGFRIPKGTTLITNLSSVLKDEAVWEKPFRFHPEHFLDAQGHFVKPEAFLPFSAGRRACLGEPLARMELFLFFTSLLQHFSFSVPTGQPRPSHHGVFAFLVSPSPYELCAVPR

[30] = Selectivity ratio of Ki for human histamine H4 receptor to Ki for histamine H1 receptor
Rattus norvegicus [31] = test: Antinociceptive efficacy in ip dosed rat assessed as inhibition of carrageenan-induced inflammatory pain in paw after 30 mins by hotbox assay relative to control; assay type: functional
Rattus norvegicus [32] = test: Antinociceptive efficacy in spinal nerve ligated Sprague-Dawley rat assessed as reduction of neuropathic pain in left side paw at 500 umol/kg, ip administered 30 mins before testing relative to control; assay type: functional

`CNC1CN(c2nc(N)nc3c2CCCc2ccccc2-3)C1` gave a Stability (Liver microsomes [1]) of 20 pmol/min/mg, an Efficacy (Rattus norvegicus [2]) of 78% and a Stability (Liver microsomes [3]) of 165 pmol/min/mg. The ED50 (Mus musculus [4]) was 17 µmol/kg, the EC50 (Histamine H4 receptor [5]) was 9.12 nM and the ED50 (Mus musculus [6]) was 25 µmol/kg. For the same compound, the Efficacy (Rattus norvegicus [7]) was 36%, the Efficacy (Rattus norvegicus [8]) was 39% and the Ratio Ki [9] was greater than 860. The Activity [10] was “inactive”, the EC50 (Histamine H4 receptor [11]) was 9.33 nM and the Ratio Ki [12] was 215. The pKb (Histamine H4 receptor [13]) was 8.05, the Activity [14] was “inactive” and the Ratio Ki [15] was 310. For the same compound, the Ratio Ki (Homo sapiens) was 93, the fraction unbound [16] was 0.52 and the Ratio Ki [17] was 123. For the same compound, the Ratio Ki [18] was 940, the Activity [19] was “inactive” and the Activity (Cytochrome P450 3A4) was “Not Active”. For the same compound, the Ki (Histamine H4 receptor [20]) was 11 nM, the Ki (Histamine H4 receptor [21]) was 3.63 nM and the Activity (BMMC) was “Active”. The Activity (Cytochrome P450 2C9) was “Not Active”, the fraction unbound [22] was 0.56 and the Activity [23] was “inactive”. The Ratio Ki [24] was 235, the Stability [25] was 38.8 pmol/min/mg and the Activity [26] was “inactive”. For the same compound, the Activity [27] was “inactive”, the Activity [28] was “inactive” and the Kp at 0.5 h [29] was 5.8. For the same compound, the Activity (Cytochrome P450 2D6) was “Not Active” and the Ratio Ki [30] was greater than 610.

In the case of `O=C(O)Cc1ccccc1Nc1c(Cl)cccc1Cl` [DICLOFENAC], the Efficacy (Rattus norvegicus [31]) is reported as 91%.

Work on `NCC1(CC(=O)O)CCCCC1` [GABAPENTIN] yielded an Efficacy (Rattus norvegicus [32]) of 62%.
